Results taken from patent US20240335439A1, “USE OF AND METHOD FOR TELAPREVIR IN PREPARATION OF DRUG FOR TREATING AN ISCHEMIA/REPERFUSION INJURY AND CYTOPROTECTIVE DRUG” (THE THIRD XIANGYA HOSPITAL OF CENTRAL SOUTH UNIVERSITY, priority 2021, published 2024).

Experiments:
H9c2 myocardial cells = test: Hypoxia/reoxygenation injury of H9c2 myocardial cells, LDH release; assay type: cell-based; details: H9c2, hypoxia 8 h / reoxygenation 12 h; telaprevir 10 μM; vs Hypoxia, FIG. 4
Experimental: H9c2 myocardial cells were purchased from the Xiangya Cell Bank of Central South University.
Cell culture method: Following a conventional cell culture method, the above cells were cultured in a DMEM medium (containing 10% of fetal bovine serum). When the cells fused and grew to 80-90%, the cells were digested with a trypsin. After the cells shrank and became round and the intercellular space was obvious, the digestion was immediately terminated with a medium, the cells were dispersed and blown evenly into a single suspension state, passaged in bottles, and cultured in a 37° C. cell incubator containing 5% of CO2. […]
Cell injury was detected by an LDH release rate.
The measurement followed the operating instructions of a commercially available lactate dehydrogenase kit (Shanghai Beyotime Biotechnology Co., Ltd., China). […] The absorbance of the sample was measured at 490 nm. Calculation: LDH release rate of cells (%)=(absorbance of the drug treatment group-absorbance of the control group)/(absorbance of the maximum enzyme release group-absorbance of the control group)×100%. When the absorbance value of each group was calculated, the absorbance value of the background blank control group was first subtracted.

[1] = system: ischemic stroke mouse models; test: Ischemic stroke mouse model (MCAO 1 h, reperfusion 24 h); assay type: in vivo, C57BL/6J mice; details: telaprevir 90 mg/kg intramuscular after 1 hour of ischemia and 1 hour of reperfusion
Experimental: Experimental animals: 7-week-old male C57BL/6J mice. The experimental animals were raised for one week in an environment with a temperature of 25° C., a relative humidity of 60%, free drinking water, and timed and quantified feeding, and then administered according to the requirements of each experimental group.
Method for building an ischemic stroke mouse model: A cerebral ischemia/reperfusion mouse model was prepared by a middle cerebral artery occlusion (MCAO) method. The steps were as follows: after an 8-week-old male C57BL/6J mouse was anesthetized by intraperitoneal injection with 0.3% pentobarbital sodium (20 mL/kg), a left common carotid artery (CCA) was isolated, and a left external carotid artery (ECA) and internal carotid artery (ICA) were isolated upwards; the ECA and ICA were temporarily occluded with ophthalmic forceps, and a proximal end of the CCA was ligated; a knotted spare silk suture was placed at a distal end of the CCA, a small incision was cut below the suture, an occlusion suture was inserted into the internal carotid artery, arterial clips on the ECA and ICA were released, and the occlusion suture was delivered into the cranium along the ICA; and when encountering resistance, the silk suture was tightened, the occlusion suture was secured. […]
Neurological function scores of mice were detected and cerebral infarct volumes were measured.

CCC[C@H](NC(=O)[C@@H]1[C@H]2CCC[C@H]2CN1C(=O)[C@@H](NC(=O)[C@@H](NC(=O)c1cnccn1)C1CCCCC1)C(C)(C)C)C(=O)C(=O)NC1CC1 [telaprevir] was tested, and the “release of LDH in the myocardial cell medium (LDH release rate)” value (H9c2 myocardial cells) was “significantly reduce”, the “neurological impairment symptoms (Longa neurological function score) of mice” value ([1]; ##P<0.01 vs I/R, FIG. 3B) was “significantly improve” and the “cerebral infarct volume of mice (TTC staining)” value ([1]; vs I/R, FIG. 3A) was “significantly decreased”.
